# Assays:
# Staphylococcus aureus [1] = experiment: Antibacterial activity against Staphylococcus aureus A1775 was determined; format: functional; details: Staphylococcus aureus; read-out: MIC
# Providencia stuartii = experiment: Antibacterial activity against Gram-negative Providencia Stuartii CMX640 was determined; format: functional; details: Providencia stuartii; read-out: MIC
# Streptococcus equinus = experiment: Antibacterial activity against Gram-positive Streptococcus bovis A5169 was determined; format: functional; details: Streptococcus equinus; read-out: MIC
# Klebsiella pneumoniae = experiment: Antibacterial activity against Klebsiella pneumoniae ATCC 8045 was determined; format: functional; details: Klebsiella pneumoniae, ATCC 8045; read-out: MIC
# Streptococcus pyogenes = experiment: Antibacterial activity against Streptococcus pyogenes EES61 was determined; format: functional; details: Streptococcus pyogenes; read-out: MIC
# Pseudomonas aeruginosa = experiment: Antibacterial activity against Pseudomonas aeruginosa A-5007 was determined; format: functional; details: Pseudomonas aeruginosa; read-out: MIC
# Enterococcus faecium = experiment: Antibacterial activity against Enterococcus faecium ATCC 8043 was determined; format: functional; details: Enterococcus faecium, ATCC 8043; read-out: MIC
# Escherichia coli [2] = experiment: Antibacterial activity against Escherichia coli JUHL was determined; format: functional; details: Escherichia coli; read-out: MIC
# [3] = Compound was tested for its effective dose against Escherichia coli JUHL in mice upon peroral administration; format: functional; details: Mus musculus, po
# DNA gyrase (bacterial) = experiment: Compound was tested for bacterial DNA gyrase activity; details: Bacteria
# Staphylococcus aureus [4] = experiment: Antibacterial activity against Staphylococcus aureus NCTC-10649M was determined; format: functional
# Staphylococcus aureus [5] = experiment: Effective dose against Staphylococcus aureus NCTC-10649M in mice upon subcutaneous administration; format: functional; details: sc
# Escherichia coli [6] = experiment: Effective dose against Escherichia coli JUHL in mice upon subcutaneous administration; format: functional; details: sc
# Staphylococcus aureus [7] = experiment: Effective dose against Staphylococcus aureus NCTC-10649M in mice upon peroral administration; format: functional; details: po
# Klebsiella aerogenes = experiment: Antibacterial activity against Enterobacter aerogenes ATCC 13048 was determined; format: functional; details: Klebsiella aerogenes, ATCC 13048; read-out: MIC
# Mus musculus [8] = experiment: Compound was tested for its effective dose against Staphylococcus aureus NCTC-10649M in mice upon peroral administration; format: functional; details: po
# Mus musculus [9] = experiment: Compound was tested for its effective dose against Staphylococcus aureus NCTC-10649M in mice upon subcutaneous administration; format: functional; details: sc
# [10] = Oral bioavailability in rat (dose 5 mg/kg); format: ADME, organism-based; details: in vivo
# [11] = Compound was evaluated for maximal plasma concentration in rat upon 5 mg/kg upon oral administration; format: ADME, organism-based; parameters: dose 5 mg/kg, route oral
# [12] = Staphylococcus aureus, read-out: MIC
SMILES,MIC (Staphylococcus aureus [1]) [µg/mL],MIC (Providencia stuartii) [µg/mL],MIC (Streptococcus equinus) [µg/mL],MIC (Klebsiella pneumoniae) [µg/mL],MIC (Streptococcus pyogenes) [µg/mL],MIC (Pseudomonas aeruginosa) [µg/mL],MIC (Enterococcus faecium) [µg/mL],MIC (Escherichia coli [2]) [µg/mL],ED50 [3] [mg/kg/day],CC50 (DNA gyrase (bacterial)) [µg/mL],MIC (Staphylococcus aureus [4]; [12]) [µg/mL],ED50 (Staphylococcus aureus [5]) [mg/kg/day],ED50 (Escherichia coli [6]) [mg/kg/day],ED50 (Staphylococcus aureus [7]) [mg/kg/day],MIC (Klebsiella aerogenes) [µg/mL],MIC (Staphylococcus aureus [4]) [µg/mL],ED50 (Mus musculus [8]) [mg/kg/day],ED50 (Mus musculus [9]) [mg/kg/day],bioavailability [10] [%],Cmax [11] [ng/mL]
Cc1c(N2CC[C@H](N)C2)c(F)cn2c(=O)c(C(=O)O)cc(C3CC3)c12 [ABT-719],0.78,0.2,0.02,0.005,0.02,0.5,0.02,0.002,0.6,0.03,0.1,0.6,0.1,3.4,0.005,–,–,–,–,–
Cc1c(N2C[C@@H](CF)[C@H](N)C2)c(F)cn2c(=O)c(C(=O)O)cc(C3CC3)c12,1.56,0.78,0.1,0.01,0.1,0.39,0.1,0.02,–,–,–,1.2,0.8,–,0.05,0.02,–,–,–,–
Cc1c(N2CCC(F)(CN)C2)c(F)cn2c(=O)c(C(=O)O)cc(C3CC3)c12 (centres undefined),0.39,0.78,0.02,0.005,0.02,0.39,0.02,0.02,–,–,0.01,–,–,–,0.05,–,–,–,–,–
O=C(O)c1cn(C2CC2)c2cc(N3CCNCC3)c(F)cc2c1=O [CIPROFLOXACIN],> 100,1.56,0.78,0.02,–,0.2,0.78,–,1,–,0.39,–,0.1,–,0.02,–,28.2,4.1,–,–
Cc1c(N2CCC(N)(CF)C2)c(F)cn2c(=O)c(C(=O)O)cc(C3CC3)c12 (centres undefined),0.78,0.39,0.2,0.01,0.1,0.39,0.1,0.02,15.1,–,0.02,2.7,4.3,10.3,0.1,–,–,–,63,600
Cc1c(N2CC[C@H]([C@@H](N)C(F)(F)F)C2)c(F)cn2c(=O)c(C(=O)O)cc(C3CC3)c12,0.39,3.1,0.2,0.2,0.2,6.2,0.1,0.2,> 10,–,0.005,11.9,> 4,25,0.78,–,–,–,57,800
Cc1c(N2C[C@@H](CN)[C@H](C(F)(F)F)C2)c(F)cn2c(=O)c(C(=O)O)cc(C3CC3)c12,0.78,1.56,0.02,0.01,0.02,0.39,0.02,0.02,–,6.5,0.01,0.7,–,2.6,0.05,–,–,–,–,–
Cc1c(N2CCC(F)C2)c(F)cn2c(=O)c(C(=O)O)cc(C3CC3)c12 (centres undefined),1.56,0.78,0.1,0.1,0.1,1.56,0.05,0.1,–,0.6,0.02,> 12,–,> 50,0.39,–,–,–,13,350
Cc1c(N2CC[C@@H]([C@@H](N)C(F)(F)F)C2)c(F)cn2c(=O)c(C(=O)O)cc(C3CC3)c12,0.78,6.2,0.39,0.39,0.2,6.2,0.39,0.78,–,–,0.02,–,–,–,1.56,–,–,–,–,–

# Source: ChEMBL document CHEMBL1130900, “Synthesis and structure-activity relationships of 2-pyridones: II. 8-(Fluoro-substituted pyrrolidinyl)-2-pyridones as antibacterial agents” (Bioorg Med Chem Lett, 1998)
